Molecules are shown by their SMILES.

One assay has as its target T1, Peregrin (Homo sapiens) (UniProt P55201).
T1 sequence (whole entry): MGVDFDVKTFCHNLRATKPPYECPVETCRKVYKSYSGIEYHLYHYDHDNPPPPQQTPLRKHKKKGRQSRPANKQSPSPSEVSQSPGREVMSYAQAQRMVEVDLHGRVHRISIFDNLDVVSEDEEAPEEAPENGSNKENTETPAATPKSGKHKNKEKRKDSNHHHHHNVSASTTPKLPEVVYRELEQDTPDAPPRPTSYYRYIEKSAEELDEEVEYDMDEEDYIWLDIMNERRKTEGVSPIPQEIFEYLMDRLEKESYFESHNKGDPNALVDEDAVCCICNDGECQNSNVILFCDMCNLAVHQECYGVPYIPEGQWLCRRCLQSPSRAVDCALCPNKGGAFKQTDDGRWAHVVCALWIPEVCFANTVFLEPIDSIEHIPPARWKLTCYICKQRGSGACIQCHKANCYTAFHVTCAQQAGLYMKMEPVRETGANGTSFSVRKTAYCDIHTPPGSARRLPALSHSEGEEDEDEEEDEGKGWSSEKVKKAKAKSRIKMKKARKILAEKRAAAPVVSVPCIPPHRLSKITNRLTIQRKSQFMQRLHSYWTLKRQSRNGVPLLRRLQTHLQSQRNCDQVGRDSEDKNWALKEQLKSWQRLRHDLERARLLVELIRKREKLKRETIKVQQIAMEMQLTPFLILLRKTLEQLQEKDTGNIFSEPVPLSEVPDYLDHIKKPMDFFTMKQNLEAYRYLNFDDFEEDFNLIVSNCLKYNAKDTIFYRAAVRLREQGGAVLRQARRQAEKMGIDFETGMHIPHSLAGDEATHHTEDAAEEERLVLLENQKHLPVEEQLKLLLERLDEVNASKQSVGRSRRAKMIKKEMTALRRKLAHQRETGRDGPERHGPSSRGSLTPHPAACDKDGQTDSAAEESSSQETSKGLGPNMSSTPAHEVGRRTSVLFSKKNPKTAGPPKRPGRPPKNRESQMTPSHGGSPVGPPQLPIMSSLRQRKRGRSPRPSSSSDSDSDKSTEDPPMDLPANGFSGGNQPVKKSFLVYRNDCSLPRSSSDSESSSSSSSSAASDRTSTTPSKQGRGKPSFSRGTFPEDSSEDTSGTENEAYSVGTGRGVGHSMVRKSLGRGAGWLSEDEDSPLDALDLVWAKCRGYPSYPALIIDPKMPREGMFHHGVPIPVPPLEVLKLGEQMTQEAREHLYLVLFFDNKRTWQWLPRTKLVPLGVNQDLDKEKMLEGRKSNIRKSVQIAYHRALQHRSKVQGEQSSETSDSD
Particulars: Compound concentration 20.0 uM, Protein concentration 2.0 uM, Result type QC Liability.

The target in assay [1] is Fibroblast growth factor receptor 3 (Homo sapiens) (UniProt P22607). Conditions: Compound concentration 20.0 uM, Protein concentration 2.0 uM, Result type QC Liability.
Chain of Fibroblast growth factor receptor 3 (Homo sapiens) (P22607 23-806 limits assumed): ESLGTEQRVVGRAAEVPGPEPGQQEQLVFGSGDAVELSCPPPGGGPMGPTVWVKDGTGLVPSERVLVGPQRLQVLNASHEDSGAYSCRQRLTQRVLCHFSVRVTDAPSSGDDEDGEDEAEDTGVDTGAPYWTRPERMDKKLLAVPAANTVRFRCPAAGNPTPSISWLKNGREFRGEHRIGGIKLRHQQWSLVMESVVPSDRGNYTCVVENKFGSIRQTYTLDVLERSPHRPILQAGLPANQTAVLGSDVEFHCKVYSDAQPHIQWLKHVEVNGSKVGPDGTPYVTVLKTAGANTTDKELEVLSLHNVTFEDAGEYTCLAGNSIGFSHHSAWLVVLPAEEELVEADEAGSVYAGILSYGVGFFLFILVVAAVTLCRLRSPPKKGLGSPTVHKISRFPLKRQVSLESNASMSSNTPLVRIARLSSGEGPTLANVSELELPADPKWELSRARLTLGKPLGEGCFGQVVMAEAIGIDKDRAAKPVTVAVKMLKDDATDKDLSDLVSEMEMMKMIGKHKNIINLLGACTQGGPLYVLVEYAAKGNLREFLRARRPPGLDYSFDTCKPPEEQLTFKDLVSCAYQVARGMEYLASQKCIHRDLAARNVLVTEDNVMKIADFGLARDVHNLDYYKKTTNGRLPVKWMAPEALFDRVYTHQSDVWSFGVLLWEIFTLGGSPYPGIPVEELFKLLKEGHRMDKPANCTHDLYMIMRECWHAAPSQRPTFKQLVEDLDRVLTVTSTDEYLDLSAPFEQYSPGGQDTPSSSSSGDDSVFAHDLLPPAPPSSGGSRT
Description: Thermal Shift Assay. Domain: start/stop: P449-E759

For `C=C[C@@]12CCc3cc(O)ccc3[C@H]1CC[C@@]1(C)[C@H]2CC[C@@H]1O`, the ΔTm at Peregrin (Homo sapiens) is -6.72 °C; in assay [1], 0.31 °C. In the case of `CC#CCC(C)[C@H](O)/C=C/[C@@H]1[C@H]2C/C(=C/CCCC(=O)O)C[C@H]2C[C@H]1O` (some centres undefined), the ΔTm at Peregrin (Homo sapiens) was -2.03 °C; in assay [1], 0.4 °C. For `C[C@@H]1CN(CC(=O)N2CC(C)(C)c3nc(CO)c(Cc4ccc(F)cc4)cc32)[C@@H](CN2CCOC[C@H]2C)CN1`, in that order: -2.93 °C and 0.45 °C.

As for `N#CN1CC[C@@H](C(=O)Nc2nc3c(s2)CN(C(=O)CN=[N+]=[N-])CC3)C1`, the figures for the shift in melting temperature (ΔTm) (on Peregrin (Homo sapiens); in assay [1]) were -1.31 °C and 0.98 °C, respectively. The corresponding values for `CS(C)(=O)=Nc1ccc(-c2ccc(-c3nc4[nH]c(O[C@@H]5CO[C@H]6[C@@H]5OC[C@H]6O)nc4cc3Cl)cc2)cc1` are -3.2 °C and 0.49 °C. For `N#CC[C@H](C1CCCC1)n1cc(-c2ncnc3[nH]ccc23)cn1`, in that order: 0.48 °C and 3.43 °C. Regarding `Cn1c(C(=O)N[C@@H](CO)c2ccc(C(=O)O)cc2)cc2cc(Cl)ccc21`, the shift in melting temperature (ΔTm) at Peregrin (Homo sapiens) was -2.2 °C; in assay [1], 0.81 °C. For `N=C(N)NCCC[C@H](NC(=O)CC1(CC(=O)N2CCN(C3c4ccccc4NC(=O)c4ccccc43)CC2)CCCC1)C(=O)NCCn1c(=O)n(-c2ccccc2)n(-c2ccccc2)c1=O` (some centres undefined), in that order: -2.29 °C and -5.62 °C. The corresponding values for `COc1cc2nc(C)nc(N[C@H](C)c3cc(N)cc(C(F)(F)F)c3)c2cc1O[C@H]1CCOC1` are -3.07 °C and 0.66 °C. The corresponding values for `COc1cc(C)c(S(=O)(=O)N(C)CCC(=O)N[C@H]2CC[C@@H](N3CCC4CN(C)CC4C3)CC2)c(C)c1` (some centres undefined) are -3.59 °C and 1.1 °C.

Take `CC(C)(C)c1cnc(CSc2cnc(NC(=O)C3CCNCC3)s2)o1`: the ΔTm was -1.47 °C at Peregrin (Homo sapiens) and 0.5 °C in assay [1]. `COC(=O)Nc1nc2c(s1)-c1c(c(-c3cccnc3)nn1-c1ccc(C3(N(C)C)CC3)cc1)CC2`: the ΔTm on Peregrin (Homo sapiens) was -1.72 °C; in assay [1], 1.4 °C. The corresponding values for `CCCCC[C@@](C)(O)/C=C/[C@H]1C(=O)CC(O)C1C/C=C\CCCC(=O)O` (some centres undefined) are -1.97 °C and 0.37 °C. For `Cc1cc(C2CCCNC2)ccc1Nc1ncc(Br)c(NCc2cccc3c2C(C)(C)C(=O)N3)n1` (centres undefined), in that order: -1.21 °C and 2.52 °C.

Consider `CCN(C)C(=O)c1ccc2c(c1)NC(=O)/C2=C(\NC1CCN(C)CC1)c1ccccc1`, for which the thermal shift (ΔTm) on Peregrin (Homo sapiens) is -1.76 °C; in assay [1] it was 0.47 °C. For `COc1ccc(-n2nc(C(F)(F)F)cc2-c2ccc(Cl)cc2)cc1`, in that order: -3.19 °C and 0.81 °C. For `CN(CC(=O)Nc1ccc(F)c(F)c1F)C(=O)c1ccc2c(c1)OCCO2`, in that order: -0.72 °C and 0.6 °C. The corresponding values for `Cc1ccc2c(N)c(C(=O)NC3CCc4cc(N5CC6CCC(C5)N6)ccc4C3)sc2n1` (centres undefined) are -1.37 °C and 0.55 °C. As for `C[C@H](NC(=O)c1cnc2n1[C@](C)(Cc1ccc(C#N)cc1)C(=O)N2c1cc(Cl)c(F)c(Cl)c1)C(=O)NC1(c2ccccn2)CC1`, the figures for the ΔTm (at Peregrin (Homo sapiens); in assay [1]) were -0.27 °C and 0.96 °C, respectively. For `CCN(CC)C/C=C/C(=O)Nc1cc2c(Nc3ccc(F)c(Cl)c3)ncnc2cc1OCC1CC1`, in that order: -0.42 °C and 1.12 °C. The corresponding values for `CCc1nc(-c2cccc(C)c2)c(-c2ccnc(NC(=O)c3ccccc3)c2)s1` are -2.72 °C and -0.84 °C.

Turning to `O=C(NCCS(=O)(=O)c1ccc(C(F)(F)F)cn1)c1ccc(Cl)cc1`, the ΔTm at Peregrin (Homo sapiens) is -0.99 °C; in assay [1] it was 0.38 °C. For `CN(C)CCC[C@@]1(c2ccc(F)cc2)OCc2cc(C#N)ccc21`, in that order: -3.08 °C and 0.45 °C. For `O=C(Nc1ccc(N2CCC(C(=O)N3CCOCC3)CC2)cc1)c1cnc(Oc2ccccc2)nc1`, in that order: -2.41 °C and 0.5 °C.

Consider `CC/C(=C(\c1ccccc1)c1ccc(OCCN(C)C)cc1)c1ccccc1`, for which the ΔTm at Peregrin (Homo sapiens) is -3.71 °C; in assay [1], 0.3 °C.

Take `CC(=O)c1ccc2c(c1)/C(=C(/Nc1cccc(C#N)c1)c1ccc3c(c1)OCCO3)C(=O)N2`: the shift in melting temperature (ΔTm) on Peregrin (Homo sapiens) is -0.95 °C; in assay [1], 4 °C. The corresponding values for `Cc1nc(Nc2cnn(C3CCNCC3)c2)nc2c1N(C)C(=O)c1cc3ccccc3cc1N2C` are -2.69 °C and 1.22 °C. For `Cc1cnc(Nc2ccc(C(=O)N3CCN(C)CC3)cc2)nc1N[C@@H]1CCC[C@@H]1C(N)=O`, in that order: -1.57 °C and 7.25 °C. As for `CN(CCCCCCC1=C(c2cc(F)cc(F)c2)CCCc2cc(O)ccc21)CCCCS(=O)(=O)CCCC(F)(F)F`, the ΔTm was -1.47 °C at Peregrin (Homo sapiens) and 0.68 °C in assay [1]. For the compound `O=C1NC(=NCc2cccs2)SC1=Cc1ccc2ncccc2c1`, the results for the thermal shift (ΔTm) (at Peregrin (Homo sapiens); in assay [1]) were -1.16 °C and 0.61 °C, respectively. For `Cc1ccc2c(NS(=O)(=O)c3ccccc3Cl)cccc2c1Oc1ncccc1-c1ccnc(N[C@H]2CCCNC2)n1`, in that order: -3.81 °C and 0.02 °C. The corresponding values for `CC(C)(O)CNC(=O)N1C(=O)N(c2cccc(C(F)(F)F)c2)C2=C(C(=O)CC2)[C@@H]1c1ccc(C#N)cc1` are -2.73 °C and 0.55 °C. For `Fc1cccc(-n2cnc3c(NCc4nc5c(F)c(F)ccc5[nH]4)nc(N4CCOCC4)nc32)c1`, in that order: -0.08 °C and -0.16 °C.

In the case of `Nc1nc(-c2nn(Cc3ccccc3F)c3ncccc23)ncc1C1CC1`, the shift in melting temperature (ΔTm) on Peregrin (Homo sapiens) was -2.28 °C; in assay [1], 1.14 °C. The corresponding values for `CNC(=O)COc1cc2cc(Nc3nc(N4C[C@H](C)C[C@H](C)C4)ncc3Cl)ccc2n(C)c1=O` are -2.08 °C and 0.62 °C.

Consider `CSc1ccc(C[C@@H](C)C(=O)O)cc1Nc1nc(N2CC[C@H](N(C)C)C2)cc(C(F)F)c1C#N`, for which the ΔTm at Peregrin (Homo sapiens) is -2.68 °C; in assay [1], 0.35 °C.

On to `O=C1CCC(N2Cc3cc(CNC(=O)C(F)(F)c4ccc(Cl)cc4)ccc3C2=O)C(=O)N1` (centres undefined), for which the shift in melting temperature (ΔTm) was -1.67 °C at Peregrin (Homo sapiens) and 0.44 °C in assay [1].

`Cn1cc(-c2ccc(-c3cncc(Cl)c3N3CCC4(CCNC4=O)CC3)cc2)cn1`: the thermal shift (ΔTm) at Peregrin (Homo sapiens) was -1.65 °C; in assay [1], 0.5 °C.

For `CCCS(=O)(=O)N[C@H]1C[C@@H](N(C)c2ncnc3[nH]ccc23)C1`, the ΔTm was -1.75 °C at Peregrin (Homo sapiens) and 1.73 °C in assay [1]. The corresponding values for `CCN1C(=O)C(c2cccc(C(=O)O)c2)C(=O)N(c2ccccc2)c2cc(C(F)(F)F)ccc21` (centres undefined) are -1.55 °C and 0.62 °C. Consider `O=S(=O)(Nc1ccc(C(O)(C(F)(F)F)C(F)(F)F)cc1)c1cccs1`, for which the ΔTm was -1.54 °C on Peregrin (Homo sapiens) and 0.59 °C in assay [1]. The corresponding values for `CC(C(=O)Nc1cc(C#N)ccc1CCCC(=O)O)c1ccc(F)c2ccccc12` (centres undefined) are -2.92 °C and 0.51 °C.

Regarding `CN1CCC(C#N)(NC(=O)[C@@H](NC(=O)N2CCOCC2)C(C)(C)C)CC1`, the ΔTm is -2.33 °C on Peregrin (Homo sapiens) and 0.67 °C in assay [1].

As for `C=CC(=O)Nc1cc(-c2nn(C3CCC(N4CCN(C(C)=O)CC4)CC3)c3ncnc(N)c23)ccc1Oc1ccccc1` (centres undefined), the ΔTm is -1.27 °C on Peregrin (Homo sapiens) and 1.74 °C in assay [1]. Turning to `C/C=C1\C(=O)CC2C3CCC4=CC(=O)CC[C@]4(C)C3CC[C@]12C` (some centres undefined), the thermal shift (ΔTm) at Peregrin (Homo sapiens) is -1.36 °C.

As a reminder, the ΔTm is the shift of the melting midpoint relative to a reference.

The values above are taken from ChEMBL document CHEMBL5308504, “Tm Shift (DSF) assay results for EUbOPEN Chemogenomics Library” (2023).
